Consider 2 substances from patent US20050129687A1, “Use of inhibitors of PACAP receptor activity for treatment of overactive bladder and pelvic floor pain syndrome” (University of Vermont and State Agricultural College, priority 2003, published 2005).

Experiment [1] concerns rat with acute (4 hr) CYP-induced cystitis. Description: Conscious cystometry in rat with acute (4 hr) CYP-induced cystitis, intravesical delivery. To be noted: 200 nmol intravesically. The class given is in vivo. As for the experimental part: (§1) Chemical cystitis was induced in adult female Wistar rats by cyclophosphamide (CYP), which is metabolized to acrolein, an irritant eliminated in the urine. CYP (Sigma ImmunoChemicals, St. Louis, Mo.) was administered in one of the following ways: (1) 4 hr (150 mg/kg; i.p.) prior to euthanasia of the animals to elicit acute inflammation (n=6); (2) 48 hr (150 mg/kg; i.p.) prior to euthanasia to examine an intermediate inflammation (n=6) or (3) administered every third day for 10 days to elicit chronic inflammation (n=8; 75 mg/kg; i.p). All injections of CYP were performed under isoflurane (2%) anesthesia.
(§2) A lower midline abdominal incision was performed under general anesthesia (ketamine 60 mg/kg, xylazine 10 mg/kg, i.p.), and polyethylene tubing (PE-50) with the end flared by heat was inserted into the dome of the bladder and secured in place with a 6-0 nylon purse string suture. The distal end of the tubing was sealed, tunneled subcutaneously and externalized at the back of the neck, out of the animal's reach. Abdominal and neck incisions were closed with 4-0 nylon sutures. Animals were maintained for 72 hours after survival surgery to ensure complete recovery.
Control rats and rats treated with CYP (acute; 4 hr or intermediate; 48 hr) or SCI rats and also treated with a specific PACAP antagonist, PACAP6-38 or vehicle (0.9% saline), were evaluated with cystometry. […] Intravesical pressure was recorded continuously using a Neurodata Acquisition System (Grass® Model 15, Astro-Med, Inc, West Warwick, R.I.). At least four reproducible micturition cycles were recorded after the initial stabilization period of 25-30 minutes. The following cystometric parameters were recorded in each animal: filling pressure (pressure at the beginning of the bladder filling), threshold pressure (bladder pressure immediately prior to micturition), micturition pressure (the maximal bladder pressure during micturition), micturition interval (time between micturition events), void volume and presence or absence of non-voiding bladder contractions (NVC). […]

Experiment [2] relates to rat with chronic spinal cord injury (SCI). Kind of experiment: Conscious cystometry in rats with chronic spinal cord injury (SCI). The class given is in vivo. As for the experimental part:
A complete spinal cord transaction was performed in adult, female rats anesthetized with isoflurane (2-3%). Animals received antibiotic and analgesic treatment following surgery. Animals were evaluated using conscious cystometry six-weeks following surgery when each animal had recovered automatic micturition. The University of Vermont IACUC approved all experimental procedures (protocol #02-108, 03-030, 03-148D) involving animal use. Animal care was under the supervision of the University of Vermont's Office of Animal Care in accordance with the Association for Assessment and Accreditation of Laboratory Animal Care and National Institutes of Health guidelines. All efforts were made to minimize animal stress/distress and suffering and to use the minimum number of animals. Currently, no alternatives exist to the use of whole, live animals in the present study.
(§3) Rats were anesthetized with isoflurane anesthesia (2-3%) and the atlanto-occiptal membrane was exposed by aseptic surgical technique. Polyethylene tubing (PE-10, Clay Adams, Parsippany, N.J.) was inserted under the membrane and passed to the lumbosacral spinal cord (L6-S1). Correct catheter placement was confirmed at time of euthanasia. The intrathecal catheter was secured in place with a small drop of dental cement and the incision was closed in two layers. The intravesical catheter was then inserted.
as §2
(§4) Control rats and rats treated with CYP (acute; 4 hr or intermediate; 48 hr) or SCI rats and also treated with a specific PACAP antagonist, PACAP6-38 or vehicle (0.9% saline), were evaluated with cystometry. For conscious cystometry, a rat was placed unrestrained in a cage. Prior to the start of the recording, the bladder was emptied and the catheter was connected via a T-tube to a pressure transducer (Grass® Model PT300, West Warwick, R.I.) and microinjection pump (Harvard Apparatus 22, South Natick, Mass.). We infused a 0.9% saline solution at room temperature into the bladder at a rate of 10 ml/hour. Intravesical pressure was recorded continuously using a Neurodata Acquisition System (Grass® Model 15, Astro-Med, Inc, West Warwick, R.I.). At least four reproducible micturition cycles were recorded after the initial stabilization period of 25-30 minutes. The following cystometric parameters were recorded in each animal: filling pressure (pressure at the beginning of the bladder filling), threshold pressure (bladder pressure immediately prior to micturition), micturition pressure (the maximal bladder pressure during micturition), micturition interval (time between micturition events), void volume and presence or absence of non-voiding bladder contractions (NVC). For the present study, NVCs were defined as increases in bladder pressure of at least 7 cm H2O without release of urine.
All values are means±S.E.M. Comparisons of urodynamic parameters between control and experimental treatments were made using the […]. When F ratios exceeded the critical value (P≦0.05), the Dunnett's post-hoc test was used to compare the control mean with each experimental mean.

In a further experiment the test system is tracheal muscles in cats. The settings on record: cited from earlier work.
Experiment [3] has as its system rat with chronic CYP-induced cystitis. Description: Conscious cystometry in rats with chronic CYP-induced cystitis. The class given is in vivo. On the procedure:
as §1, §3, §2, §4
The effects of a specific PAC1 receptor antagonist, PACAP6-38 (i.t. or intravesical) (Peninsula Pharmaceuticals) or vehicle (0.9% saline, i.t. or intravesical; artificial cerebrospinal fluid, aCSF, i.t.) on lower urinary tract function in rats treated with CYP (4 hr, 48 hr or chronic cystitis) were evaluated. Separate groups of rats were used to evaluate the effects of PACAP6-38 given either through the i.t. catheter or the intravesical catheter. After recording at least three reproducible micturition cycles, PACAP6-38 or saline was administered through the catheters (i.t. or intravesical) and the effects evaluated.
All values are means±S.E.M. Comparisons of urodynamic parameters between control and experimental treatments were made using the Fischer exact test. […]

Where [4] appears, read: acute (4 hr) CYP-induced cystitis (FIG. 4).
Where [5] appears, read: 1 nmol intrathecally, rat with chronic SCI.
[6] abbreviates: 1 nmol, SCI rats compared to SCI rats treated with vehicle (aCSF) (FIG. 7).
[7] abbreviates: 1 nmol intrathecally, rat with chronic CYP-induced cystitis (FIG. 1).

Where no end group is shown, it is not given here.

Regarding “Phe-Thr-Asp-Ser-Tyr-Ser-Arg-Tyr-Arg-Lys-Gln-Met-Ala-Val-Lys-Lys-Tyr-Leu-Ala-Ala-Val-Leu-Gly-Lys-Arg-Tyr-Lys-Gln-Arg-Val-Lys-Asn-Lys (FTDSYSRYRKQMAVKKYLAAVLGKRYKQRVKNK) [PACAP6-38]”, in experiment [1] (acute (4 hr) CYP-induced cystitis), the “persistence of drug effects after administration” value (from here on “persistence of drug effects”) was “at least 2 hours”. For the same substance, in experiment [1] (setting [4]), the “appearance of non-voiding bladder contractions” value was “reduced” and the intercontraction interval entry is recorded as “increased”. Further, in experiment [2] (setting [5]), the Non-voiding bladder contractions entry was “not eliminated by treatment but reduced in pressure” and the “persistence of drug effects” value is on record as “at least 5 hours”. Also, the micturition pressures entry in experiment [2] (1 nmol intrathecally, rat with chronic SCI (FIGS. 5 and 6)) was “reduced”. Also, in experiment [2] (setting [6]), the Intermicturition pressure entry is listed as “reduced”, the micturition pressure entry was “reduced” and the threshold pressure result is reported as “reduced”. In addition, in the experiment with tracheal muscles in cats, the “inhibitory-NANC (non-adrenergic, non-cholinergic) relaxation” value was “partially but significantly inhibited”. Also, the “persistence of drug effects” value in experiment [3] (1 nmol intrathecally, rat with chronic CYP-induced cystitis) is reported as “at least 5 hours”. In addition, in experiment [3] (setting [7]), the “appearance of non-voiding bladder contractions” value is “reduced” and the intercontraction interval result was “increased”. The intercontraction interval entry in experiment [3] (rats treated chronically with CYP, 1 or 10 nmol (FIG. 3)) is listed as “significantly lengthened”. In addition, the “Non-voiding bladder contractions per cycle (NVC/cycle)” value in experiment [3] (rats treated chronically with CYP, compared to untreated rats with CYP-induced cystitis (FIG. 2)) is given as “significantly reduced”.
As for “Pituitary adenylate cyclase-activating polypeptide (HSDGIFTDSYSRYRKQMAVKKYLAAVLGKRYKQRVKNK; ends and bridges not checked) [PACAP, polypeptide hormone that stimulates adenylate cyclase in pituitary cells; used as agonist]”, the “effect of intrathecal agonist on the PACAP6-38-induced reduction of pressures” value in experiment [2] (SCI rats, intrathecal, after PACAP6-38 (FIG. 7)) is given as “blocked this effect”. For the same substance, in experiment [3] (rats treated chronically with CYP, after PACAP6-38 treatment), the “effect of agonist on the PACAP6-38-induced change in intercontraction interval” value is “reversed”.
